In US20110189194A1, “USE OF CD95 INHIBITORS FOR THE TREATMENT OF INFLAMMATORY DISORDERS” (Deutsches Krebsforschungszentrum Stiftung des offentlichen …, priority 2008, published 2011):
“Also recorded” adds a separate entry of the source.

Experiments:
[1] = tested on: bone marrow derived neutrophils; test: Two chamber in vitro migration assay, neutrophils; format: cell-based, mouse
Method: (§1) Migration of bone marrow derived neutrophils or macrophages was assessed in vitro in a two chamber migration assay. Transwell inserts [3 μm (BD #353096) or 8 μm (BD #353097) pore size for neutrophils or macrophages respectively] were coated with matrigel (50 μg/ml; BD #354234). 5×10^5 neutrophils or macrophages were plated in 500 μl medium onto the upper chamber. Cells were left untreated or treated with CD95L-T4 by adding 10, 20 and 40 ng/ml to the upper chamber. The number of migrated cells was counted 3 hours for neutrophils and 24 hours for macrophages after treatment.
The role of metalloproteinases on neutrophil recruitment was investigated by using selective inhibitors of MMP-2/9. Neutrophils were pre-incubated with MMP-2/9 inhibitor (50 μM; Calbiochem #444251) 30 minutes prior to CD95L-T4 treatment and migrating cells were calculated.
Migration of bone marrow derived neutrophils or macrophages was assessed in vitro in a two chamber migration assay. Transwell inserts [3 μm (BD #353096) or 8 μm (BD #353097) pore size for neutrophils or macrophages, respectively] were coated with matrigel (50 μg/ml; BD #354234). 5×10^5 neutrophils, 1×10^6 dHL60 or 2×10^5 macrophages were plated in 500 μl medium onto the upper chamber. Cells were left untreated or treated with CD95L-T4 (engineered Mus musculus CD95L (Kleber et al., 2008)) by adding 10, 20 and 40 ng/ml to the upper chamber. The number of migrated cells was counted 3 h for neutrophils, 4 h for dHL-60 and 24 h for macrophages after treatment by using a hemocytometer. […] Data of the migration assays are representative of at least 4 independent experiments with 6 technical replicates per condition.
(§2) The role of metalloproteinases on neutrophil and macrophage recruitment was investigated by using selective inhibitors of MMP-2/9. Neutrophils, dHL-60 and macrophages were pre-incubated with MMP-2/9 inhibitors (50 μM; Calbiochem #444251) 30 minutes prior to CD95L-T4 treatment and the number of migrated cells was counted at the times indicated previously.

[2] = tested on: dHL-60 cells; test: Two chamber in vitro migration assay, dHL-60; format: cell-based, human
Method: The human myeloid HL-60 cell line (ACC 3) was kindly provided by Dr. Lucie Darner. PMN-like differentiation of HL-60 cells and the electroporation protocol was described previously. Briefly, HL-60 cells were allowed to differentiate in presence of 1.3% DMSO for 6 days before used for protein analysis. Electroporation of dHL-60 cells was performed at day 4. For electroporation, a 400 μL aliquot of dHL-60 (1×10^7 cells/mL) in RPMI was transferred to a Gene Pulser cuvette with an 0.4-cm electrode (Bio-Rad, Hercules, Calif.) and mixed with […] Syk siRNA ON-TARGETplus SMARTpool siRNA or non-targeting SMARTpool siRNA. Cells were incubated for 10 minutes at room temperature (RT) and subjected to an electroporation pulse of 310 V and 1175 μFF (Gene Pulser Biorad, Munich, Germany). 48 h to 72 h after electroporation, Syk knockdown was assessed by Western Blot. At the same time, cells were stimulated with CD95L-T4 and analysed after 4 h for migration.
Migration of bone marrow derived neutrophils or macrophages was assessed in vitro in a two chamber migration assay. Transwell inserts [3 μm (BD #353096) or 8 μm (BD #353097) pore size for neutrophils or macrophages, respectively] were coated with matrigel (50 μg/ml; BD #354234). 5×10^5 neutrophils, 1×10^6 dHL60 or 2×10^5 macrophages were plated in 500 μl medium onto the upper chamber. Cells were left untreated or treated with CD95L-T4 (engineered Mus musculus CD95L (Kleber et al., 2008)) by adding 10, 20 and 40 ng/ml to the upper chamber. The number of migrated cells was counted 3 h for neutrophils, 4 h for dHL-60 and 24 h for macrophages after treatment by using a hemocytometer. […]
as §2

[3] = tested on: bone marrow derived macrophages; test: Two chamber in vitro migration assay, macrophages; format: cell-based, mouse
Method: as §1
Transfection of primary macrophages was performed at day 8 in culture with lipofectamine (Invitrogen #11668019) according to the manufacturer's protocol. Briefly, macrophages were transfected with mouse […] Syk siRNA ON-TARGETplus SMARTpool siRNA or a non-targeting SMARTpool siRNA using Lipofectamine 2000. 48 h later Syk knockdown was assessed by Western Blot. At the same time, cells were stimulated with CD95L-T4 and analysed after 24 h for migration, MMP-activity or Western blots.
Migration of bone marrow derived neutrophils or macrophages was assessed in vitro in a two chamber migration assay. […] The number of migrated cells was counted 3 h for neutrophils, 4 h for dHL-60 and 24 h for macrophages after treatment by using a hemocytometer. […]

[4] = tested on: Syk; test: Western blot, CD95L-induced phosphorylation of Syk in dHL-60; format: cell-based, human; conditions: CD95L 20 and 40 ng/ml
Method: (§3) Protein extraction and immunoblotting was performed as previously described. Membranes were probed with the following antibodies: phosphorylated AKT (p-Ser473-AKT, 1:1000, Cell Signaling #9271), total AKT (t-AKT, 1:1000, Cell Signaling #9272), phosphorylated Src (p-Src Tyr 416, 1:1000, Cell Signaling #2101), total Src (1:1000, Cell Signaling #2108), phosphorylated Syk (pSyk Tyr 319/352, 1:1000, Cell Signaling #2701), total Syk (1:1000, Cell Signaling #2712).

[5] = tested on: Syk; test: Western blot, CD95L-induced phosphorylation of Syk in primary macrophages; format: cell-based, mouse
Method: as §3

O=C(O)[C@@H](Cc1ccccc1)NS(=O)(=O)c1ccc(-c2ccccc2)cc1 [MMP-2/9 inhibitor]
CD95L-T4 induced migration of neutrophils (in words) [1]: blocked
migration after MMP-2/9 blockade, neutrophils, cell count ± SEM ([1]; CD95L-T4 10 ng/ml, with or without inhibitor 50 μM): 10 ng/ml: 724.69 ± 150.01
migration after MMP-2/9 blockade, neutrophils, cell count ± SEM ([1]; Control (no CD95L-T4), inhibitor 50 μM, 30 min pre-incubation): Control: 713.00 ± 161.89
CD95L-T4 induced migration of dHL-60 (in words) [2]: blocked
migration after MMP-2/9 blockade, dHL-60, cell count ± SEM ([2]; CD95L-T4 40 ng/ml, with or without inhibitor 50 μM): 40 ng/ml: 683.09 ± 170.89
migration after MMP-2/9 blockade, dHL-60, cell count ± SEM ([2]; Control (no CD95L-T4), inhibitor 50 μM): Control: 658.09 ± 137.65
CD95L-T4 induced migration of macrophages (in words) [3]: blocked
migration after MMP-2/9 blockade, macrophages, cell count ± SEM ([3]; CD95L-T4 20 ng/ml, with or without inhibitor 50 μM): 323.80 ± 100.20

CC(C)(C)n1nc(-c2ccc(Cl)cc2)c2c(N)ncnc21 [PP2]
CD95L-induced phosphorylation of Syk in dHL-60 [4]: blocked; also recorded: inhibited
CD95L-induced phosphorylation of Syk in primary macrophages [5]: blocked; also recorded: inhibited
